Test results: patent publication US9340590B2 (priority 2011, dated 2016)
Like-named read-outs stand apart in the source and are kept apart here. Positions of bridges follow the written chain, without caps; N, C: chain ends. Non-standard residues stand in square brackets, D forms with d. Residues, ends and D or L forms follow the SMILES beside them. 1Nal = N[C@@H](Cc1cccc2ccccc12)C(=O)O

How the values were obtained:
hNav1.5 = hNav1.5 (Homo sapiens, UniProt Q14524); experiment: cell-based
hNav1.3 = hNav1.3 (Homo sapiens, UniProt Q9NY46); experiment: cell-based; settings: IonWorks Quattro, read-out: IWQ Use Nav1.3
hNav1.3, sequence (Q9NY46 whole entry, looked up): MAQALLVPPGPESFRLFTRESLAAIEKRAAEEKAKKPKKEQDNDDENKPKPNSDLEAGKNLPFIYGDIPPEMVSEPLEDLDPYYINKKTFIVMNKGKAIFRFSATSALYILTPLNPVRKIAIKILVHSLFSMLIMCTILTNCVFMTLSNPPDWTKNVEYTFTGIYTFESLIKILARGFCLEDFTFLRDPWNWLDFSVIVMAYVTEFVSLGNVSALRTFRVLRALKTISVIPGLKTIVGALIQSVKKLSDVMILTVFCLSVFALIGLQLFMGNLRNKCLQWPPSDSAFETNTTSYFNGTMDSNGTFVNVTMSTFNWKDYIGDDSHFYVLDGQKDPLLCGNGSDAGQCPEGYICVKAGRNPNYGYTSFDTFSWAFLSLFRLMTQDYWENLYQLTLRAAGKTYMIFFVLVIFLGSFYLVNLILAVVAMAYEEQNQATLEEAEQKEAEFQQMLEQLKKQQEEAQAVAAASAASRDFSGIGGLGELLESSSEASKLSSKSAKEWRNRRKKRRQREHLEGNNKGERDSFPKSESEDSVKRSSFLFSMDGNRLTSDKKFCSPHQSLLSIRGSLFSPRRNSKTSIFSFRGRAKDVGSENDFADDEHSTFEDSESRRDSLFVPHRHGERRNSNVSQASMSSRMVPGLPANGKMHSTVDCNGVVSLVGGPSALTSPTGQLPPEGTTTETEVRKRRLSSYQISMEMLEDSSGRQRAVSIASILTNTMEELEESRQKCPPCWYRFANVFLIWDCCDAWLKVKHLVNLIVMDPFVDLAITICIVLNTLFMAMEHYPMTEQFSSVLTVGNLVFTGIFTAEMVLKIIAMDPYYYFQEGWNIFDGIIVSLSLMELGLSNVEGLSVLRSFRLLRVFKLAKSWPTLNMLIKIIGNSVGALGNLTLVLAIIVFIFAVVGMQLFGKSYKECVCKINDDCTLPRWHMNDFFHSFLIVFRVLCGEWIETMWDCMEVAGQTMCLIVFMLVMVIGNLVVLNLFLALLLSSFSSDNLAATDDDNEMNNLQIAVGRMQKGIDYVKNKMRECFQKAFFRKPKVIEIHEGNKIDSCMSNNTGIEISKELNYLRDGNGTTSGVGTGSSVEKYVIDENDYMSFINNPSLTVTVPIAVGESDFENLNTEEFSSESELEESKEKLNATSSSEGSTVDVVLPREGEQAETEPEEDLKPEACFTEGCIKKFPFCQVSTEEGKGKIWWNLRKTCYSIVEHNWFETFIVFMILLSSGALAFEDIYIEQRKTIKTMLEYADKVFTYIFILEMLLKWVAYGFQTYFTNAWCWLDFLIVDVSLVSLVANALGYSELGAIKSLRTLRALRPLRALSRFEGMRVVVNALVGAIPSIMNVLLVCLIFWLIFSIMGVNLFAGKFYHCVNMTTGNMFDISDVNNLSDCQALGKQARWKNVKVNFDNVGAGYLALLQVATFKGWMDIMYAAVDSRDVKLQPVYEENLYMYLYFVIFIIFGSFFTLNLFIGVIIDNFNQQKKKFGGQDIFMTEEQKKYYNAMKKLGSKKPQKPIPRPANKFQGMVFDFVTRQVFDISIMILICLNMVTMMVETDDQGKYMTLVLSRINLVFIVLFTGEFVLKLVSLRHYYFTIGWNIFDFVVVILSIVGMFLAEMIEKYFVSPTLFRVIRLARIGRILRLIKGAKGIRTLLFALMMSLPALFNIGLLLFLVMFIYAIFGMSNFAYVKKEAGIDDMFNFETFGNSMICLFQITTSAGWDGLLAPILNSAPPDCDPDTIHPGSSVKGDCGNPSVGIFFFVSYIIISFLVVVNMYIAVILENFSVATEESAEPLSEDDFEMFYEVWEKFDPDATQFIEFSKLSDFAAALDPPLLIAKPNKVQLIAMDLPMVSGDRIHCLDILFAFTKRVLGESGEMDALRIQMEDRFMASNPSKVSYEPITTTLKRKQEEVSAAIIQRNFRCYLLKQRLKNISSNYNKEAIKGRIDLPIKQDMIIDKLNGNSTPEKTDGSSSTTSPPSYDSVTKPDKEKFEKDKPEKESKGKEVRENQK

[1] = IonWorks Quattro, Use, read-out: IWQ Use Nav1.5

hNav1.5, sequence (Q14524 whole entry, looked up): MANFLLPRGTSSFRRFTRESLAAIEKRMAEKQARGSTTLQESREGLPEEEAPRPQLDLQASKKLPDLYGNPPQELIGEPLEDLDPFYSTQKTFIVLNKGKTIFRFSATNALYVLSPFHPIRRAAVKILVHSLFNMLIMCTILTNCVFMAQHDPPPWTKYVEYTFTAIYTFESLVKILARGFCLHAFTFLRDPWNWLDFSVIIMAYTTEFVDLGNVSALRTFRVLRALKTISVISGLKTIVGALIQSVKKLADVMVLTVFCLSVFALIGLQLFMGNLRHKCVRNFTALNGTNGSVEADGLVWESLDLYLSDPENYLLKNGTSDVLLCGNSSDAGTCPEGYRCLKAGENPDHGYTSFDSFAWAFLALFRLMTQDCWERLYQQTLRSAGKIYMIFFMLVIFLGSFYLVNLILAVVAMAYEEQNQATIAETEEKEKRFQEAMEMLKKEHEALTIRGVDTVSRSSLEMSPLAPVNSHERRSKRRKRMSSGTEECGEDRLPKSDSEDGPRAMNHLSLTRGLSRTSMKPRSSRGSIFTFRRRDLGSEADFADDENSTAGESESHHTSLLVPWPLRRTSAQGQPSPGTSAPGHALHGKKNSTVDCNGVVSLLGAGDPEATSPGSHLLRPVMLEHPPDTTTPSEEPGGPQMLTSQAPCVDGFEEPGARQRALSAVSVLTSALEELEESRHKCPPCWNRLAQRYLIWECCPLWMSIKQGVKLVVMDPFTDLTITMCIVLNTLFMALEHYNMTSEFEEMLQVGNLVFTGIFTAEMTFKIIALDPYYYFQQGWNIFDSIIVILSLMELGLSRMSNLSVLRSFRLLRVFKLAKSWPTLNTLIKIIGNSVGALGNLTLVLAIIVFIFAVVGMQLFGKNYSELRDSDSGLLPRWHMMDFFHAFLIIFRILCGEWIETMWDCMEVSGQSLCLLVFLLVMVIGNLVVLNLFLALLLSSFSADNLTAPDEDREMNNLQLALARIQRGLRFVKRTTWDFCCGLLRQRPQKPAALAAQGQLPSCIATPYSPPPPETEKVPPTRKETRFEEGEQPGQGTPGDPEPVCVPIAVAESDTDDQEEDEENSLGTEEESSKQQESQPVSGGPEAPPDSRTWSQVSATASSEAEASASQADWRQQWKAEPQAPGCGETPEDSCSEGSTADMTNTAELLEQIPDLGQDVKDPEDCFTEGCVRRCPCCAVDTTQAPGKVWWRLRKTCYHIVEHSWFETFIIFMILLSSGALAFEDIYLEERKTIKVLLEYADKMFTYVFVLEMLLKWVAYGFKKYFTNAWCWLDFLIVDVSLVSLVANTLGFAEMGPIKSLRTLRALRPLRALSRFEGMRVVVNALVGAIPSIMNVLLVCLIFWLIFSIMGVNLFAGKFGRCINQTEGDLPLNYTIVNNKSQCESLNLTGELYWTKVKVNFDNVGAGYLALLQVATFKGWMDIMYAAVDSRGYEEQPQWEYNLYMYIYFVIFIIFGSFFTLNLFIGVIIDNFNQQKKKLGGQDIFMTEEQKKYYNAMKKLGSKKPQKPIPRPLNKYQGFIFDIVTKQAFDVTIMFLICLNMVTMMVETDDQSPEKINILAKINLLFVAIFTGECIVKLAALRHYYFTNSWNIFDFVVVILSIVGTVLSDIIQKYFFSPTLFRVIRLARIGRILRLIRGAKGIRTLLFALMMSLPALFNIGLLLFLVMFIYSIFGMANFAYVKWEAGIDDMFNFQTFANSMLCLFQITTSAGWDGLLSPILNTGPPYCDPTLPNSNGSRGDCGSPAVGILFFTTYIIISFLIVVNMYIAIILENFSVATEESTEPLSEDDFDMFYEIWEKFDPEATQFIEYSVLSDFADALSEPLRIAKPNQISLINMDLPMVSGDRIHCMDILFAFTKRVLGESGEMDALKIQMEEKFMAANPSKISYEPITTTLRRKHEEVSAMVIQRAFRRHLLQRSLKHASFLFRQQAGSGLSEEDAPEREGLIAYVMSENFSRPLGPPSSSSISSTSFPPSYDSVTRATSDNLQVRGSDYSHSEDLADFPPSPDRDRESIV

Row | Compound | IC50 (hNav1.5; IWQ Use Nav1.5 (μM)) | IC50 (hNav1.3; Use) | IC50 (hNav1.3; Table 25, use, […]) | IC50 (hNav1.5; [1])
1 | CC[C@H](C)[C@@H]1NC(=O)[C@@H]2CSSC[C@@H]3NC(=O)[C@H](CCCNC(=N)N)NC(=O)[C@H](CC(C)C)NC(=O)[C@H](CC(N)=O)NC(=O)[C@@H]4CCCN4C(=O)[C@H](CCCNC(=N)N)NC(=O)[C@H](CSSC[C@H](NC(=O)[C@@H](N)CC(=O)O)C(=O)N[C@@H](CC(C)C)C(=O)NCC(=O)N[C@@H](Cc4ccccc4)C(=O)N[C@@H](CCSC)C(=O)N[C@@H](CCCNC(=N)N)C(=O)N[C@@H](CCCCN)C(=O)N2)NC(=O)[C@H](CSSC[C@@H](C(=O)N[C@@H](CCCCN)C(=O)N[C@@H](Cc2ccc(O)cc2)C(=O)N[C@H](C(=O)N[C@@H](Cc2ccccc2)C(N)=O)C(C)C)NC(=O)[C@H](Cc2c[nH]c4ccccc24)NC(=O)[C@H](CCCCN)NC(=O)[C@H](Cc2cnc[nH]2)NC(=O)[C@H]([C@@H](C)O)NC(=O)[C@H](CCCNC(=N)N)NC(=O)[C@H](CO)NC3=O)NC(=O)[C@H](CCCCN)NC(=O)[C@H](CC(=O)O)NC(=O)[C@H](CC(N)=O)NC(=O)[C@H](CC(=O)O)NC(=O)[C@@H]2CCCN2C1=O [compound 158] (H-DCLGFMRKCIPDNDKCCRPNLRCSRTHKWCKYVF-NH2; disulfide 2-17, 9-23, 16-30) | 8.2 µM | 30 nM |  | 
2 | CC[C@H](C)[C@@H]1NC(=O)[C@@H]2CSSC[C@@H]3NC(=O)[C@H](C(C)C)NC(=O)[C@H](CC(C)C)NC(=O)[C@H](CC(N)=O)NC(=O)[C@@H]4CCCN4C(=O)[C@H](CCCNC(=N)N)NC(=O)[C@H](CSSC[C@H](NC(=O)[C@@H](N)CC(=O)O)C(=O)N[C@@H](CC(C)C)C(=O)NCC(=O)N[C@@H](Cc4ccccc4)C(=O)N[C@@H](CCSC)C(=O)N[C@@H](CCCNC(=N)N)C(=O)N[C@@H](CCCCN)C(=O)N2)NC(=O)[C@H](CSSC[C@@H](C(=O)N[C@@H](CCCCN)C(=O)N[C@@H](CCCNC(=N)N)C(=O)N[C@H](C(=O)N[C@@H](Cc2ccccc2)C(N)=O)C(C)C)NC(=O)[C@H](Cc2c[nH]c4ccccc24)NC(=O)[C@H](CCCCN)NC(=O)[C@H](Cc2cnc[nH]2)NC(=O)[C@H]([C@@H](C)O)NC(=O)[C@H](CCCNC(=N)N)NC(=O)[C@H](CO)NC3=O)NC(=O)[C@H](CCCCN)NC(=O)[C@H](CC(=O)O)NC(=O)[C@H](CC(N)=O)NC(=O)[C@H](CC(=O)O)NC(=O)[C@@H]2CCCN2C1=O [compound 159] (H-DCLGFMRKCIPDNDKCCRPNLVCSRTHKWCKRVF-NH2; disulfide 2-17, 9-23, 16-30) | 8.65 µM |  | 870 nM | 
3 | CC[C@H](C)[C@@H]1NC(=O)[C@@H]2CSSC[C@@H]3NC(=O)[C@H](C(C)C)NC(=O)[C@H](CC(C)C)NC(=O)[C@H](CC(N)=O)NC(=O)[C@@H]4CCCN4C(=O)[C@H](CCCNC(=N)N)NC(=O)[C@H](CSSC[C@H](NC(=O)[C@@H](N)CC(=O)O)C(=O)N[C@@H](CC(C)C)C(=O)NCC(=O)N[C@@H](Cc4ccccc4)C(=O)N[C@@H](CCSC)C(=O)N[C@@H](CCCNC(=N)N)C(=O)N[C@@H](CCCCN)C(=O)N2)NC(=O)[C@H](CSSC[C@@H](C(=O)N[C@@H](CCCCN)C(=O)N[C@@H](Cc2cccc4ccccc24)C(=O)N[C@H](C(=O)N[C@@H](Cc2ccccc2)C(N)=O)C(C)C)NC(=O)[C@H](Cc2c[nH]c4ccccc24)NC(=O)[C@H](CCCCN)NC(=O)[C@H](Cc2cnc[nH]2)NC(=O)[C@H]([C@@H](C)O)NC(=O)[C@H](CCCNC(=N)N)NC(=O)[C@H](CO)NC3=O)NC(=O)[C@H](CCCCN)NC(=O)[C@H](CC(=O)O)NC(=O)[C@H](CC(N)=O)NC(=O)[C@H](CC(=O)O)NC(=O)[C@@H]2CCCN2C1=O [compound 167] (H-DCLGFMRKCIPDNDKCCRPNLVCSRTHKWCK[1Nal]VF-NH2; disulfide 2-17, 9-23, 16-30) | 3.96 µM |  | 1 nM | 
4 | CSCC[C@@H]1NC(=O)[C@H](Cc2ccccc2)NC(=O)CNC(=O)[C@H](CC(C)C)NC(=O)[C@@H](NC(=O)[C@@H](N)CC(=O)O)CSSC[C@@H]2NC(=O)[C@@H]3CSSC[C@@H](C(=O)N[C@@H](CCCCN)C(=O)N[C@@H](Cc4ccc(O)cc4)C(=O)N[C@H](C(=O)N[C@@H](Cc4ccccc4)C(N)=O)C(C)C)NC(=O)[C@H](Cc4c[nH]c5ccccc45)NC(=O)[C@H](CCCCN)NC(=O)[C@H](Cc4cnc[nH]4)NC(=O)[C@H]([C@@H](C)O)NC(=O)[C@H](CCCNC(=N)N)NC(=O)[C@H](CO)NC(=O)[C@H](CSSC[C@H](NC(=O)[C@H](CCCCN)NC(=O)[C@H](CCCNC(=N)N)NC1=O)C(=O)N[C@@H](Cc1ccc(O)cc1)C(=O)N1CCC[C@H]1C(=O)N[C@@H](CC(=O)O)C(=O)N[C@@H](CC(N)=O)C(=O)N[C@@H](CC(=O)O)C(=O)N[C@@H](CCCCN)C(=O)N3)NC(=O)[C@H](C(C)C)NC(=O)[C@H](CC(C)C)NC(=O)[C@H](CC(N)=O)NC(=O)[C@@H]1CCCN1C(=O)[C@H](CCCNC(=N)N)NC2=O [compound 299] (H-DCLGFMRKCYPDNDKCCRPNLVCSRTHKWCKYVF-NH2; disulfide 2-17, 9-23, 16-30) |  | 70 nM |  | 5.41 µM
5 | CSCC[C@@H]1NC(=O)[C@H](Cc2ccccc2)NC(=O)CNC(=O)[C@H](CC(C)C)NC(=O)[C@@H](NC(=O)[C@@H](N)CC(=O)O)CSSC[C@@H]2NC(=O)[C@@H]3CSSC[C@@H](C(=O)N[C@@H](CCCCN)C(=O)N[C@@H](Cc4ccc(O)cc4)C(=O)N[C@H](C(=O)N[C@@H](Cc4ccccc4)C(N)=O)C(C)C)NC(=O)[C@H](Cc4c[nH]c5ccccc45)NC(=O)[C@H](CCCCN)NC(=O)[C@H](Cc4cnc[nH]4)NC(=O)[C@H]([C@@H](C)O)NC(=O)[C@H](CCCNC(=N)N)NC(=O)[C@H](CO)NC(=O)[C@H](CSSC[C@H](NC(=O)[C@H](CCCCN)NC(=O)[C@H](CCCNC(=N)N)NC1=O)C(=O)N[C@@H](C(C)C)C(=O)N1CCC[C@H]1C(=O)N[C@@H](CC(=O)O)C(=O)N[C@@H](CC(N)=O)C(=O)N[C@@H](CC(=O)O)C(=O)N[C@@H](CCCCN)C(=O)N3)NC(=O)[C@H](C(C)C)NC(=O)[C@H](CC(C)C)NC(=O)[C@H](CC(N)=O)NC(=O)[C@@H]1CCCN1C(=O)[C@H](CCCNC(=N)N)NC2=O [compound 301] (H-DCLGFMRKCVPDNDKCCRPNLVCSRTHKWCKYVF-NH2; disulfide 2-17, 9-23, 16-30) |  | 90 nM |  | 7.88 µM
6 | CSCC[C@@H]1NC(=O)[C@H](Cc2ccccc2)NC(=O)CNC(=O)[C@H](CC(C)C)NC(=O)[C@@H](NC(=O)[C@@H](N)CC(=O)O)CSSC[C@@H]2NC(=O)[C@@H]3CSSC[C@@H](C(=O)N[C@@H](CCCCN)C(=O)N[C@@H](Cc4ccc(O)cc4)C(=O)N[C@H](C(=O)N[C@@H](Cc4ccccc4)C(N)=O)C(C)C)NC(=O)[C@H](Cc4c[nH]c5ccccc45)NC(=O)[C@H](CCCCN)NC(=O)[C@H](Cc4cnc[nH]4)NC(=O)[C@H]([C@@H](C)O)NC(=O)[C@H](CCCNC(=N)N)NC(=O)[C@H](CO)NC(=O)[C@H](CSSC[C@H](NC(=O)[C@H](CCCCN)NC(=O)[C@H](CCCNC(=N)N)NC1=O)C(=O)N[C@@H](Cc1ccccc1)C(=O)N1CCC[C@H]1C(=O)N[C@@H](CC(=O)O)C(=O)N[C@@H](CC(N)=O)C(=O)N[C@@H](CC(=O)O)C(=O)N[C@@H](CCCCN)C(=O)N3)NC(=O)[C@H](C(C)C)NC(=O)[C@H](CC(C)C)NC(=O)[C@H](CC(N)=O)NC(=O)[C@@H]1CCCN1C(=O)[C@H](CCCNC(=N)N)NC2=O [compound 302] (H-DCLGFMRKCFPDNDKCCRPNLVCSRTHKWCKYVF-NH2; disulfide 2-17, 9-23, 16-30) |  | 80 nM |  | 5.33 µM
7 | CSCC[C@@H]1NC(=O)[C@H](Cc2ccccc2)NC(=O)CNC(=O)[C@H](CC(C)C)NC(=O)[C@@H](NC(=O)[C@@H](N)CC(=O)O)CSSC[C@@H]2NC(=O)[C@@H]3CSSC[C@@H](C(=O)N[C@@H](CCCCN)C(=O)N[C@@H](Cc4ccc(O)cc4)C(=O)N[C@H](C(=O)N[C@@H](Cc4ccccc4)C(N)=O)C(C)C)NC(=O)[C@H](Cc4c[nH]c5ccccc45)NC(=O)[C@H](CCCCN)NC(=O)[C@H](Cc4cnc[nH]4)NC(=O)[C@H]([C@@H](C)O)NC(=O)[C@H](CCCNC(=N)N)NC(=O)[C@H](CO)NC(=O)[C@H](CSSC[C@H](NC(=O)[C@H](CCCCN)NC(=O)[C@H](CCCNC(=N)N)NC1=O)C(=O)N[C@@H](Cc1cnc[nH]1)C(=O)N1CCC[C@H]1C(=O)N[C@@H](CC(=O)O)C(=O)N[C@@H](CC(N)=O)C(=O)N[C@@H](CC(=O)O)C(=O)N[C@@H](CCCCN)C(=O)N3)NC(=O)[C@H](C(C)C)NC(=O)[C@H](CC(C)C)NC(=O)[C@H](CC(N)=O)NC(=O)[C@@H]1CCCN1C(=O)[C@H](CCCNC(=N)N)NC2=O [compound 304] (H-DCLGFMRKCHPDNDKCCRPNLVCSRTHKWCKYVF-NH2; disulfide 2-17, 9-23, 16-30) |  | 30 nM |  | 6.36 µM
8 | CSCC[C@@H]1NC(=O)[C@H](Cc2ccccc2)NC(=O)CNC(=O)[C@H](CC(C)C)NC(=O)[C@@H](NC(=O)[C@@H](N)CC(=O)O)CSSC[C@@H]2NC(=O)[C@@H]3CSSC[C@@H](C(=O)N[C@@H](CCCCN)C(=O)N[C@@H](Cc4ccc(O)cc4)C(=O)N[C@H](C(=O)N[C@@H](Cc4ccccc4)C(N)=O)C(C)C)NC(=O)[C@H](Cc4c[nH]c5ccccc45)NC(=O)[C@H](CCCCN)NC(=O)[C@H](Cc4cnc[nH]4)NC(=O)[C@H]([C@@H](C)O)NC(=O)[C@H](CCCNC(=N)N)NC(=O)[C@H](CO)NC(=O)[C@H](CSSC[C@H](NC(=O)[C@H](CCCCN)NC(=O)[C@H](CCCNC(=N)N)NC1=O)C(=O)N[C@@H](CO)C(=O)N1CCC[C@H]1C(=O)N[C@@H](CC(=O)O)C(=O)N[C@@H](CC(N)=O)C(=O)N[C@@H](CC(=O)O)C(=O)N[C@@H](CCCCN)C(=O)N3)NC(=O)[C@H](C(C)C)NC(=O)[C@H](CC(C)C)NC(=O)[C@H](CC(N)=O)NC(=O)[C@@H]1CCCN1C(=O)[C@H](CCCNC(=N)N)NC2=O [compound 305] (H-DCLGFMRKCSPDNDKCCRPNLVCSRTHKWCKYVF-NH2; disulfide 2-17, 9-23, 16-30) |  | 90 nM |  | 4.64 µM
